Positions of bridges follow the written chain, without caps; N, C: chain ends. Non-standard residues stand in square brackets, D forms with d. Residues, ends and D or L forms follow the SMILES beside them. *: point of attachment. Octanoyl = CCCCCCCC(=O)*; Dab = NCC[C@H](N)C(=O)O
How the values were obtained:
[1] = Plasma concentrations (PK) in NMRI mice after SC administration; assay type: in vivo
Protocol: (§1) NMRI female mice (10–12 weeks old, 29–32 g, n = 64) were obtained from ENVIGO (The Netherlands) and housed prior to treatment under standard conditions (acclimatization period of 1 week, 21–23 °C, 12-h light/dark cycle, relative humidity 45%–65%) with unlimited access to food (R70 diet from Lantmännen) and water. The experimental procedures were performed in accordance with the guidelines of the European Community and local laws and policies (Directive 2010/63/EU), and all of the procedures were approved by Food and Veterinary Service, Riga, Latvia. Studies involving animals are reported in accordance with the ARRIVE guidelines. Animals were weighed on the day of the treatment (before treatment) to calculate the required amount of compound for the corresponding dose. For PK and excretion studies the mice were dosed subcutaneously (SC) via a bolus injection (injection volume 10 mL/kg). Four consecutive doses were administrated twice a day at 9:00 AM and 15:00 PM over the course of two days.
Blood samples were collected in tubes containing heparin. Blood was sampled from tail vein 15, 30, and 45 min after the first and last administrations of the compounds. Tubes were centrifuged at +4 °C 10,000× g for 3 min. Plasma samples were collected and stored at −20 °C until analysis.
(§2) Plasma and urine sample analyses were performed using the quantitative UPLC/MS/MS method. Calibration standards and quality control samples for plasma analysis were prepared by spiking blank mouse plasma (CD-1, anticoagulant Na Heparin, Innovative Research, USA) with a stock solution of analyte to achieve a nominal concentration ranging from 0.01 to 50 μg/mL for NAB739 and PMB. Calibration standards and quality control samples for urine analysis were prepared by spiking blank mouse urine (mouse CD-1 urine, Sera Laboratories International Ltd., UK) with a stock solution of analytes to achieve a nominal concentration from 0.04 to 30 μg/mL for NAB739 and PMB.
(§3) A sample volume of 20 μL (calibration standards, quality controls or analytical samples in plasma or urine) was transferred into the plastic tube and mixed with 100 μL of 1% formic acid solution in acetonitrile/methanol (3:1, v/v) mixture to precipitate proteins. The tubes were vortex- mixed and centrifuged at 10,000 rpm for 10 min. Then, 100 μL of supernatant was diluted with 400 μL of water and subjected to UPLC/MS analysis as follows:
(§4) UPLC system Acquity H-class (Waters) connected with triple quadrupole mass spectrometer Xevo TQ-S (Waters). UPLC conditions: Column—Acquity BEH C18 (2.1 × 50 mm, 1.7 µm); Mobile phase—A: 0.1% Formic acid aqueous solution, B: Acetonitrile; Gradient: Initial—90%A, 2.5 min—5% A, 4.0 min—5% A, 4.5 min—90% A, 6 min—90% A; Flow—0.3 mL/min; Column temperature—40 °C; Injection volume—1 μL (NAB739) or 5 μL (PMB). MS conditions: Ionization—ESI positive mode; Capillary voltage—1.0 kV; ESI source temperature—120 °C; Desolvation gas (N2) flow—800 L/h; Desolvation temperature—600 °C.

[2] = Urinary elimination in NMRI mice after SC administration (pooled 0–3 h urine); assay type: in vivo
Protocol: as §1
For PK study, before the administration of the compound, mice voiding was stimulated. Then compound was administrated SC. Mice were put in separate cages with LabSand (USA) and urine was collected during the next 3 h. At the end of each 1-h period voiding was stimulated by gentle massage of the belly. Urine samples from each mouse were pooled in one tube. Urine volume was determined by weighing of the pooled urine sample.
as §2, §3, §4

E. coli = conditions: murine E. coli pyelonephritis, cited from earlier work; for Half maximal effective dose (ED50) in kidneys: bacterial burden in kidneys
[3] = cynomolgus monkey, in vivo; cited from earlier work
[4] = cynomolgus monkey, in vivo; cited from earlier work; remark: listed apart in the source
[5] = Observation of adverse effects during administration in mice; assay type: in vivo, NMRI mice; conditions: SC, doses 0.25, 0.5, 1, 2 and 4 mg/kg, single and four-times-repeated
Protocol: as §1

[6] = design: method as in PMID 18840079; conditions: patients; cited from earlier work

Compound	Plasma concentration ([1]; female, NMRI, mouse, in vivo, sc, 0.5 mg/kg)	Linearity of Cmax and dose–response relationship, correlation coefficient ([1]; mouse, in vivo, sc)	Urinary concentration ([2]; female, NMRI, mouse, in vivo, sc, 4 mg/kg)	Relative elimination by urine higher after the last dose than after the first dose, average ([2]; mouse, in vivo)	Urine concentration higher after the last dose compared to the first dose, average ([2]; mouse, in vivo)	Detection in urine samples ([2]; mouse, in vivo, sc, 4 mg/kg)	Half maximal effective dose (ED50) in kidneys (E. coli)	Fold lower dose than PMB reducing bacterial burden in kidney, urine and bladder (E. coli)	Nephrotoxicity compared to PMB [3]	Excretion in urine [4]	Plasma concentrations after the first versus the last administration ([1]; SC, four doses)	Time at which Cmax was observed after administration ([1]; plasma, SC, all doses 0.25–4 mg/kg)	Linearity of Cmax and dose–response relationship, correlation coefficient ([1]; plasma, first SC administration, doses 0.25–4 mg/kg)	Detection in urine samples ([2]; SC dose of 4 mg/kg, pooled 0–3 h urine)	Detection in urine ([2]; after the fourth SC dose at 4 mg/kg, detection limit 0.6 µg/mL)	Adverse effects during administration [5]	Part of dose excreted in urine [6]
CCCCCCCC(=O)N[C@H](C(=O)N[C@H](CO)C(=O)N[C@H]1CCNC(=O)[C@H]([C@@H](C)O)NC(=O)[C@H](CCN)NC(=O)[C@H](CCN)NC(=O)[C@H](CC(C)C)NC(=O)[C@@H](Cc2ccccc2)NC(=O)[C@H](CCN)NC1=O)[C@@H](C)O [NAB739] (Octanoyl-T[dS][Dab][Dab][dF]L[Dab][Dab]T; lactam 3-C; N-terminus assumed)	exceeded 1 µg/mL	0.9987	above 35 µg/mL	26%	27%	found in all pooled (0–3 h) urine samples	0.24 mg/kg	approximately 10 fold	less nephrotoxic	excreted in the cynomolgus urine at a very significant extent							
polymyxin B [PMB, reference compound]							2.1 mg/kg				similar	30 min	0.975	not detected	not found	no adverse effects were observed	less than 1%

Reference: PMC7235871, “Excretion of the Polymyxin Derivative NAB739 in Murine Urine” (Antibiotics, 2020)
